In ChEMBL document CHEMBL4680243, “N-benzyl 4,4-disubstituted piperidines as a potent class of influenza H1N1 virus inhibitors showing a novel mechanism of hemagglutinin fusion peptide interaction” (Eur J Med Chem, 2020):

Key:
Influenza A virus [1] = assay: Antiviral activity against Influenza A virus (A/PR 8/34 (H1N1)) infected in MDCK cells assessed as reduction in virus-induced cytopathic effect measured after 72 hrs by MTS assay; assay type: functional, organism-based; conditions: A/Puerto Rico/8/1934(H1N1)
Influenza A virus [2] = assay: Antiviral activity against Influenza A virus (A/PR 8/34 (H1N1)) infected in MDCK cells assessed as reduction in virus-induced cytopathic effect measured after 72 hrs by microscopic analysis; assay type: functional, organism-based; conditions: A/Puerto Rico/8/1934(H1N1)
[3] = Selectivity index, ratio of CC50 for MDCK cells to EC50 for antiviral activity against Influenza A virus (A/Puerto Rico/8/1934(H1N1)) infected in MDCK cells; assay type: toxicity, cell-based; conditions: dog, read-out: Ratio CC50/EC50
[4] = Cytotoxicity against MDCK cells assessed as reduction in cell viability measured after 72 hrs by MTS assay; assay type: cell-based, Canis lupus familiaris; conditions: dog
[5] = Cytotoxicity against MDCK cells assessed as change in cell morphology measured after 72 hrs by microscopic analysis; assay type: cell-based, Canis lupus familiaris; conditions: dog

Compound	EC50 (Influenza A virus [1]) [µM]	EC50 (Influenza A virus [2]) [µM]	selectivity ratio [3]	CC50 at 72 h [4] [µM]	MCC at 72 h [5] [µM]
CC(C)(C)NC(=O)C1(N(C(=O)[C@H](Cc2ccccc2)NC(=O)OC(C)(C)C)C2CC2)CCN(Cc2ccccc2)CC1	5.3	5.8	≤ 10	58	84
COC(=O)C[C@H](NC(=O)OC(C)(C)C)C(=O)N(Cc1ccc(F)cc1)C1(C(=O)NCS(=O)(=O)c2ccc(C)cc2)CCN(Cc2ccccc2)CC1	> 100	> 100		6.4	4
COC(=O)C[C@H](NC(=O)OC(C)(C)C)C(=O)N(Cc1ccc(F)cc1)C1(C(=O)NCc2ccccc2)CCN(Cc2cc(F)cc(F)c2)CC1	> 100	> 100		84	100
CC(C)(C)OC(=O)N[C@@H](Cc1ccccc1)C(=O)N(Cc1ccc(F)cc1)C1(C(=O)NCc2ccccc2)CCN(Cc2ccccc2)CC1	> 100	> 100		56	100
COC(=O)C[C@H](NC(=O)OC(C)(C)C)C(=O)N(Cc1ccc(F)cc1)C1(C(=O)NC2CCCCC2)CCN(Cc2ccccc2)CC1	> 100	> 100		44	100
CC[C@H](C)[C@H](NC(=O)OCc1ccccc1)C(=O)N(C1CC1)C1(C(=O)NC(C)(C)C)CCN(Cc2ccccc2)CC1	3.9	4.3	13	59	100
CC[C@H](C)[C@H](NC(=O)OCc1ccccc1)C(=O)N(C1CC1)C1(C(=O)NCc2ccccc2)CCN(Cc2ccccc2)CC1	9	5.1	8	> 100	> 100
COC(=O)C[C@H](NC(=O)OC(C)(C)C)C(=O)N(Cc1ccc(Cl)cc1)C1(C(=O)NCc2ccccc2)CCN(Cc2ccccc2)CC1	1.6	1.6	≤ 10	63	100
COC(=O)C[C@H](NC(=O)OC(C)(C)C)C(=O)N(Cc1ccc(F)cc1)C1(C(=O)NCc2ccccc2)CCN(Cc2cccc(F)c2)CC1	1.6	1.6		73	84
COC(=O)C[C@H](NC(=O)OC(C)(C)C)C(=O)N(Cc1ccc(F)cc1)C(C)(C)C(=O)NCc1ccccc1	> 100	> 100		10	20
COC(=O)C[C@H](NC(=O)OC(C)(C)C)C(=O)N(Cc1ccccc1F)C1(C(=O)NCc2ccccc2)CCN(Cc2ccccc2)CC1	8.7	9.3	≤ 10	72	20
COC(=O)C[C@H](NC(=O)OC(C)(C)C)C(=O)N(CCNc1ccccc1)C1(C(=O)NCc2ccccc2)CCN(Cc2ccccc2)CC1	> 100	> 100		68	14
COC(=O)C[C@H](NC(=O)OC(C)(C)C)C(=O)N(Cc1ccc(F)cc1)C1(C(=O)NCc2ccccc2)CCN(c2ccccc2)CC1	> 100	> 100		8.2	20
COC(=O)C[C@H](NC(=O)OC(C)(C)C)C(=O)N(Cc1ccc(F)cc1)C1(C(=O)NCc2ccccc2)CC[N+](C)(Cc2ccccc2)CC1 (some centres not stated)	> 100	> 100		55	100
CC[C@H](C)[C@H](NC(=O)OC(C)(C)C)C(=O)N(Cc1ccccc1)C1(C(=O)NCc2ccccc2)CCN(Cc2ccccc2)CC1	> 100	> 100		> 100	> 100
COC(=O)C[C@H](NC(=O)OC(C)(C)C)C(=O)N(C)C1(C(=O)NCc2ccccc2)CCN(Cc2ccccc2)CC1	> 100	14		25	20
CCC(C)N(C(=O)[C@H](CC(=O)OC)NC(=O)OC(C)(C)C)C1(C(=O)NCc2ccccc2)CCN(Cc2ccccc2)CC1 (some centres not stated)	> 100	> 100		53	84
COC(=O)C[C@H](NC(=O)OC(C)(C)C)C(=O)N(Cc1ccc(F)cc1)C1(C(=O)NCc2ccccc2)CCN(C)CC1	36	36		9.5	17
